Data reported in US7951802B2, “Use of 7-azaindoles in the inhibition of c-Jun N-terminal kinase” (Eisai R&D Management Co., Ltd., priority 2007, dated 2011).

What was measured:
panel of 100 kinases = assay: Selectivity against a panel of kinases (Upstate/Millipore), expressed as Gini coefficient; format: biochemical; details: reference compounds with aromatic C(5) group, calculated from Table 4 data, concentration not given
Protocol: Selectivity of Compounds (I) Against a Panel of Kinases
Inhibitory potency of compound (I-8) and (I-60) at a concentration of 1 micromolar and (I-69) and (I-70) at a concentration of 5 micromolar with ATP concentration of 10 micromolar was determined at Upstate/Millipore against a panel of 100 kinases representing all major families within the kinome. The results are presented in Table 3 and are expressed as percentage of remaining activity.
For comparison purposes Table 4 contains the relevant inhibitory data for reference compounds A-L containing a (hetero)aromatic ring at C(5) of the 7-azaindole system.
Selectivity Expressed as Gini Coefficient
Selectivity of compounds according to the present invention and reference compounds expressed as Gini coefficient (J. Med. Chem. 2007, 50, 5773-5779) is shown in Table 5. The individual Gini coefficients have been calculated using the data in Tables 3 and 4. Value Gini=0 corresponds to a totally non-selective compound; value Gini=1 reflects perfect selectivity (inhibition of a single target only)

JNK3 = JNK3 (Homo sapiens, UniProt P53779); assay: JNK3 SPA assay (phosphorylation of GST-c-Jun); format: biochemical; details: 3.33 μM ATP, GST-c-Jun substrate, read-out: IC50 against JNK3
Sequence of JNK3 (P53779 whole entry, species assumed): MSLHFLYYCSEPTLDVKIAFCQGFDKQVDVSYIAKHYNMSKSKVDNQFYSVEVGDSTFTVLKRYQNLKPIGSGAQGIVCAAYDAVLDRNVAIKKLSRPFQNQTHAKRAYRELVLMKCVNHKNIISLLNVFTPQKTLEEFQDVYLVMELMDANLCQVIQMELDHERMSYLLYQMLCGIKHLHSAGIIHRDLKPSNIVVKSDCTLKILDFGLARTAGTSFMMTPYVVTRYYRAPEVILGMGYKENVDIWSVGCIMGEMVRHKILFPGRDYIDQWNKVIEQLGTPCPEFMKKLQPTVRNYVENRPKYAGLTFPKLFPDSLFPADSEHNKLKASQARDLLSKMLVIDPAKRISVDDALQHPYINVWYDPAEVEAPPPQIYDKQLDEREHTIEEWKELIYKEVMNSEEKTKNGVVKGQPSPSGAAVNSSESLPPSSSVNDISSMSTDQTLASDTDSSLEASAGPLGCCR
Protocol: JNK1, JNK2, JNK3—SPA Assay
JNK1, JNK2, JNK3—SPA Assay • 1. Compound is dissolved in DMSO to a convenient concentration and this is diluted in 10% DMSO to a five times concentrate of the desired starting concentration (frequently 1:100). • 2. 10 μl of 500 mM EDTA is added to alternative wells of the Opti-plate row, which will receive kinase reaction plus DMSO. This creates the negative control. • 3. For the JNK2 and JNK3 assay, compounds are prepared in six 2-fold dilutions with water and each concentration is tested in duplicate. For the JNK1 assay compounds are prepared in four 5-fold dilutions with water which are tested in triplicate. Controls are treated identically. • 4. 20 μl per well of each compound concentration is transferred to an Opti-plate, in duplicate. • 5. 30 μl (JNK2/3 SPA) or 50 μl (JNK1 SPA) of substrate solution (25 mM HEPES pH 7.5, 10 mM magnesium acetate with 3.33 μM ATP (JNK2/3) or 2 μM ATP (JNK1), approximately 7.5 kBq [γ-^33P] ATP, GST-c-Jun, in water) is added to each well. • 6. 50 μl (JNK2/3 SPA) or 30 μl (JNK1 SPA) of kinase solution (JNK in 25 mM HEPES pH 7.5, 10 mM Mg Acetate) is added to each well.
• 7. The plate is incubated for 30 minutes at room temperature. • 8. 100 μl of bead/stop solution is added to each well (5 mg/ml glutathione-PVT-SPA beads, 40 mM ATP in PBS). • 9. Plates are sealed and incubated for 30 minutes at room temperature, centrifuged for 10 minutes at 2500 g and counted. • 10. The IC50 values are calculated as the concentration of the compound being tested at which the phosphorylation of c-Jun is decreased to 50% of the control value.

SMILES | Selectivity expressed as Gini coefficient (panel of 100 kinases) | IC50 (JNK3) [nM]
c1ncc(-c2c[nH]c3ncc(-c4ccc(N5CCOCC5)cc4)cc23)s1 [L] | 0.3642 | –
c1nc2[nH]cc(-c3cn[nH]c3)c2cc1-c1csc(C2CCNCC2)n1 [C] | 0.4129 | –
CN1CCN(c2nc(-c3c[nH]c4ncc(-c5ccccc5)cc34)cs2)CC1 [H] | 0.4917 | –
CN(C)c1ccc(-c2cnc3[nH]cc(-c4cn[nH]c4)c3c2)cc1 [A] | 0.3368 | –
CN1CCN(C(=O)c2nc(-c3c[nH]c4ncc(-c5ccc(N6CCN(C)CC6)cc5)cc34)cs2)CC1 [J] | 0.3286 | –
CC(C)Cn1cc(-c2cnc3[nH]cc(-c4cnn(C)c4)c3c2)cn1 [F] | 0.3777 | –
Cn1cc(-c2c[nH]c3ncc(-c4ccc(N5CCOCC5)cc4)cc23)cn1 [B] | 0.3920 | –
CN(C)C(=O)c1nc(-c2c[nH]c3ncc(-c4ccccc4)cc23)cs1 [G] | 0.3501 | –
O=C(c1nc(-c2c[nH]c3ncc(-c4ccccc4)cc23)cs1)N1CCOCC1 [K] | 0.2968 | –
CN1CCCC1c1nc(-c2c[nH]c3ncc([C@H]4CC[C@H](N5CCCOCC5)CC4)cc23)cs1 (stereo partly drawn) [Compound I-113, 4-((1r,4r)-4-(3-(2-(1-methylpyrrolidin-2-yl)thiazol-4-yl)-1H-pyrrolo[2,3-b]pyridin-5-yl)cyclohexyl)-1,4-oxazepane] | – | 1230
CC1CCC(c2cnc3[nH]cc(-c4csc(C(=O)N5CCCCC5)n4)c3c2)CC1 (stereo not drawn) [Compound I-20, {4-[5-(4-Methyl-cyclohexyl)-1H-pyrrolo[2,3-b]pyridin-3-yl]-thiazol-2-yl}-piperidin-1-yl-methanone] | – | 138
CN1CCC(c2csc(-c3cnc4[nH]cc(-c5cnn(C)c5)c4c3)n2)CC1 [E] | 0.3757 | –
O=C(c1nc(-c2c[nH]c3ncc(C4=CCCC4)cc23)cs1)N1CCOCC1 [Compound I-3, [4-(5-Cyclopent-1-enyl-1H-pyrrolo[2,3-b]pyridin-3-yl)-thiazol-2-yl]-morpholin-4-yl-methanone] | – | 38
Cc1nc(-c2c[nH]c3ncc([C@H]4CC[C@H](N5CCCOCC5)CC4)cc23)sc1C [Compound I-123, 3-(4,5-dimethyl-1,3-thiazol-2-yl)-5-[trans-4-(1,4-oxazepan-4-yl)cyclohexyl]-1H-pyrrolo[2,3-b]pyridine] | – | 1070
FC(F)(F)c1csc(-c2c[nH]c3ncc([C@H]4CC[C@@H](N5CCCC5)CC4)cc23)n1 [Compound I-85, 2-(5-((1s,4s)-4-(pyrrolidin-1-yl)cyclohexyl)-1H-pyrrolo[2,3-b]pyridin-3-yl)-4-(trifluoromethyl)thiazole] | – | 1820
CN1CCN(c2ccc(-c3cnc4[nH]cc(-c5csc(C(=O)N6CCCCC6)n5)c4c3)cc2)CC1 [D] | 0.2705 | –
c1ncc(-c2c[nH]c3ncc([C@H]4CC[C@H](N5CCOCC5)CC4)cc23)s1 [Compound I-60, 4-((1r,4r)-4-(3-(thiazol-5-yl)-1H-pyrrolo[2,3-b]pyridin-5-yl)cyclohexyl)morpholine] | – | 110
O=C(c1nc(-c2c[nH]c3ncc([C@H]4CC[C@H](N5CCOCC5)CC4)cc23)cs1)N1CCCCC1 [Compound I-33, (4-(5-((1r,4r)-4-morpholinocyclohexyl)-1H-pyrrolo[2,3-b]pyridin-3-yl)thiazol-2-yl)(piperidin-1-yl)methanone] | – | 198
CN(C)C(=O)c1nc(-c2c[nH]c3ncc(C4CCCCC4)cc23)cs1 [Compound I-9, 4-[5-cyclohexyl-1H-pyrrolo[2,3-b]pyridin-3-yl]-thiazole-2-carboxylic acid dimethylamide] | – | 147
FC(F)(F)c1csc(-c2c[nH]c3ncc([C@H]4CC[C@H](N5CCCOCC5)CC4)cc23)n1 [Compound I-80, 4-((1r,4r)-4-(3-(4-(trifluoromethyl)thiazol-2-yl)-1H-pyrrolo[2,3-b]pyridin-5-yl)cyclohexyl)-1,4-oxazepane] | – | 513
Cc1nc(-c2c[nH]c3ncc([C@H]4CC[C@H](N5CCCC5)CC4)cc23)cs1 [Compound I-74, 2-methyl-4-(5-((1r,4r)-4-(pyrrolidin-1-yl)cyclohexyl)-1H-pyrrolo[2,3-b]pyridin-3-yl)thiazole] | – | 3310
COc1nc(-c2c[nH]c3ncc([C@H]4CC[C@H](N5CCCOCC5)CC4)cc23)cs1 [Compound I-124, 3-(2-methoxy-1,3-thiazol-4-yl)-5-[trans-4-(1,4-oxazepan-4-yl)cyclohexyl]-1H-pyrrolo[2,3-b]pyridine] | – | 520
O=C(c1nc(-c2c[nH]c3ncc(C4CCCCC4)cc23)cs1)N1CCOCC1 [Compound I-8, [4-(5-Cyclohexyl-1H-pyrrolo[2,3-b]pyridin-3-yl)-thiazol-2-yl]-morpholin-4-yl-methanone] | – | 111
CN1CCN(C(=O)c2nc(-c3c[nH]c4ncc(C5CCCCC5)cc34)cs2)CC1 [Compound I-10, [4-(5-Cyclohexyl-1H-pyrrolo[2,3-b]pyridin-3-yl)-thiazol-2-yl]-(4-methyl-piperazin-1-yl)-methanone] | – | 63
O=C(c1nc(-c2c[nH]c3ncc(C4=CCCC4)cc23)cs1)N1CCCCC1 [Compound I-4, [4-(5-Cyclopent-1-enyl-1H-pyrrolo[2,3-b]pyridin-3-yl)-thiazol-2-yl]-piperidin-1-yl-methanone] | – | 251
CN1CCC(c2nc(-c3c[nH]c4ncc(C5=CCC(N6CCCOCC6)CC5)cc34)cs2)CC1 (stereo not drawn) [Compound I-101, 4-(4-(3-(2-(1-methylpiperidin-4-yl)thiazol-4-yl)-1H-pyrrolo[2,3-b]pyridin-5-yl)cyclohex-3-enyl)-1,4-oxazepane] | – | 363
c1nc(-c2c[nH]c3ncc([C@H]4CC[C@H](N5CCCOCC5)CC4)cc23)cs1 [Compound I-116, 4-((1r,4r)-4-(3-(thiazol-4-yl)-1H-pyrrolo[2,3-b]pyridin-5-yl)cyclohexyl)-1,4-oxazepane] | – | > 2000
COc1nc(-c2c[nH]c3ncc(C4CCCCC4)cc23)cs1 [Compound I-50, 4-(5-cyclohexyl-1H-pyrrolo[2,3-b]pyridin-3-yl)-2-methoxythiazole] | – | 891
CN1CCC(c2nc(-c3c[nH]c4ncc([C@H]5CC[C@H](N6CCCOCC6)CC5)cc34)cs2)CC1 [Compound I-102, 4-((1r,4r)-4-(3-(2-(1-methylpiperidin-4-yl)thiazol-4-yl)-1H-pyrrolo[2,3-b]pyridin-5-yl)cyclohexyl)-1,4-oxazepane] | – | 550
COc1nc(-c2c[nH]c3ncc([C@H]4CC[C@H](N5CCOCC5)CC4)cc23)cs1 [Compound I-120, 4-((1r,4r)-4-(3-(2-methoxythiazol-4-yl)-1H-pyrrolo[2,3-b]pyridin-5-yl)cyclohexyl)morpholine] | – | 479
